This note sets out measurements from patent publication EP0110298A1, “Acridanone derivatives” (F. HOFFMANN-LA ROCHE & CO. Aktiengesellschaft, priority 1982, dated 1984).

Structures can show the parent of a compound that is named as a salt.

In one data set the test system is Schistosoma mansoni. Nature of the data set: Schistosomicidal (vermicidal) activity in infected mice, single oral treatment, worm count reduction. The settings on record: 456 h, Albino-Mäuse infected s.c. with cercariae of a Liberia-Stamm of Schistosoma mansoni, single peroral treatment 46 days after infection, section after 19 days, dose giving 50% reduction of worm count (Probitmethode), read-out: VD50 in mg/kg p.o. Format: in vivo. The source says: Die schistosomizide Wirkung der erfindungsgemässen Stoffe kann tierexperimentell wie folgt nachgewiesen werden: • Albino-Mäuse mit einem Gewicht von 15-18 g werden subcutan mit 60 + 5 Cercarien eines Liberia-Stammes von Schistosoma mansoni infiziert. 46 Tage nach der Infektion werden die Tiere einmal mit den zu prüfenden Substanzen peroral behandelt. Pro Substanz und Dosierung werden 5-10 Tiere eingesetzt. Als Kontrolle dienen 10 unbehandelte Tiere. Die Sektion erfolgt nach 19 Tagen, worauf Wurmpaare und einzelne Würmer in Mesenterialvenen, Pfortader und Leber herauspräpariert und gezählt werden. Die vermicide Wirkung zeigt sich in einer reduzierten Zahl lebender Parasiten im Vergleich zu der Zahl in den Kontrolltieren.
Zur Auswertung wird die prozentuale Reduktion der Parasiten bei behandelten Tieren im Vergleich zu unbehandelten Kontrolltieren berechnet. Man bestimmt die VD 50 nach der Probitmethode. Die VD50 ist diejenige vermizide Dosis, welche eine 50-proz. Reduktion der Wurmzahl bewirkt.

Data set [1] can be described thus: Acute toxicity (DL50) after single oral administration to mice. The settings on record: mouse, in vivo, read-out: DL50 in mg/kg p.o. From the text:
In der nachfolgenden Tabelle werden die Resultate dargestellt, welche mit einigen repräsentativen erfindungsgemässen Substanzen erhalten worden sind. Angegeben werden für jede der darin figurierenden Verbindung die VD50 in mg/kg p.o. und, für einige dieser Verbindungen, die DL50 in mg/kg bei einmaliger oraler Verabreichung an Mäusen.

For the compound `CC(=O)N1CCN(CCn2c3ccccc3c(=NNc3nccs3)c3ccccc32)CC1` [10-[2-(4-Acetyl-1-piperazinyl)äthyl]-9-acridanon-(2-thiazolyl)hydrazon-dihydrochlorid], the ED50 in the data set on Schistosoma mansoni is 2.6 mg/kg. The LD50 in data set [1] lay within 312 to 625 mg/kg.
On the same counts, the results for `CCN(CC)CCn1c2ccccc2c(=NNc2nccs2)c2ccccc21` [10-[2-(Diäthylamino)äthylJ-9-acridanon-(2-thiazolyl)hydrazon-dihydrochlorid] are 3.3 mg/kg and above 5000 mg/kg.
For `CN(C)CCCn1c2ccccc2c(=NNc2nccs2)c2ccccc21.Cl.Cl` [10-[3-(Dimethylamino)propyl]-9-acridanon-(2-thiazolyl)hydrazon-dihydrochlorid], in that order: 3.5 mg/kg and 312 to 625 mg/kg.
For `CC(=O)N1CCN(CCn2c3ccccc3c(=NN=C3NCCS3)c3ccccc32)CC1` [10-[2-(4-Acetyl-1-piperazinyl)äthyl]-9-acridanon-(2-thiazolidinyliden)-hydrazon], in that order: 3.4 mg/kg and 1250 to 2500 mg/kg.
For the compound `CN1CCN(CCn2c3ccccc3c(=NNc3nccs3)c3ccccc32)CC1` [10-12-(4-Methyl-1-piperazinyl)äthyl]-9-acridanon-(2-thiazolyl)hydrazon.2,5 HCl], the ED50 with Schistosoma mansoni was 2.4 mg/kg. In addition, the LD50 in data set [1] lay within 625 to 1250 mg/kg.
For `NCCn1c2ccccc2c(=NNc2nccs2)c2ccccc21` [10-(2-Aminoäthyl)-9-acridanon-2-thiazolyl-hydrazon-dihydrochlorid], in that order: 2.6 mg/kg and 156 to 312 mg/kg.
On the same counts, the results for `c1ccc2c(c1)c(=NNc1nccs1)c1ccccc1n2CCN1CCCCC1` [10-[2-(1-Piperidinyl)äthyl]-9-acridanon-(2-thiazolyl)hydrazon-l,5 HCl] are 9 mg/kg and 312 to 625 mg/kg.
For `CCN(CC)CCn1c2ccccc2c(=NN=C2NCCS2)c2ccccc21` [10-[2-(Diäthylamino)äthyl]-9-acridanon-(2-thiazolidinyliden)hydrazon], in that order: 9.5 mg/kg and 312 to 625 mg/kg.
Regarding `CN(C)CCn1c2ccccc2c(=NN=C2NCCS2)c2ccccc21` [10-[2-(Dimethylamino)-äthyl]-9-acridanon-(2-thiazolidinyliden)hydrazon], in the data set on Schistosoma mansoni, the ED50 was determined as 6.4 mg/kg. Further, in data set [1], the LD50 fell in the range of 250 to 500 mg/kg.
For `c1ccc2c(c1)c(=NN=C1NCCS1)c1ccccc1n2CCN1CCCC1` [10-[2-(1-Pyrrolidinyl)äthyl]-9-acridanon-(2-thiazolidinyliden)hydrazon], in that order: 6.2 mg/kg and 156 to 312 mg/kg.
On the same counts, the results for `CN(C)CCCn1c2ccccc2c(=NN=C2NCCS2)c2ccccc21` [10-[3-(Dimethylamino)propyl]-9-acridanon-(2-thiazolidinyliden)hydrazon] are 4.7 mg/kg and 125 to 250 mg/kg.
As to `CN(C)CCn1c2ccccc2c(=NNc2nccs2)c2ccccc21` [10-[2-(Dimethylamino)äthyl]-9-acridanon-(2-thiazolyl)hydrazon-dihydrochlorid], in the data set on Schistosoma mansoni, the ED50 is 4.9 mg/kg. Also, in data set [1], the LD50 is 312 to 625 mg/kg.
`CN1CCN(CCn2c3ccccc3c(=NN=C3NCCS3)c3ccccc32)CC1` [10-[2-(4-Methyl-1-piperazinyl)äthyl]-9-acridanon-(2-thiazolidinyliden)hydrazon]: the ED50 with Schistosoma mansoni came out at 4 mg/kg. In addition, the LD50 in data set [1] lay within 156 to 312 mg/kg.
